Experimental data: patent publication US11000033B2, “Ketone or oxime compound, and herbicide” (NISSAN CHEMICAL CORPORATION, priority 2014, dated 2021)

Experiments:
Format in all cases: in vivo
Leptochloa chinensis = assay: Test Example 3: herbicidal effect by foliage application, Wagner pot (symbol D); settings: application herbicide amount 320 g/ha
How it was run: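 The compound, formulated as an emulsion and diluted with water to a predetermined rate, is applied uniformly to leaves of two-week-old seedlings growing in submerged alluvial soil at 25–30 °C. Rice is included. Each plant is assessed 3 weeks later using defined criteria.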

Avena fatua [1] = assay: Test Example 4: herbicidal effect by soil treatment (symbol I); settings: application herbicide amount 320 g/ha
How it was run: (§1)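 Seeds were sown in sterilized diluvial soil, covered with about 1.5 cm of soil, and the soil surface was sprayed with a water-diluted emulsion of the compound at a predetermined rate. Plants grew in a greenhouse at 25° C. to 30° C.; effects were scored visually 3 weeks after application.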

Scirpus juncoides = assay: Test Example 1: herbicidal activity, application before weed generation in submerged conditions (symbol B); settings: application herbicide amount 320 g/ha
How it was run: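 Paddy pre-emergence test. Formulated emulsion, water-diluted to a predetermined rate, is applied to floodwater on sowing day; rice transplanted at 2.5 leaves. Effect read at 3 weeks on a 0–5 herbicidal-ratio scale.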

[2] = tested on: Echinochloa crus-galli var. crus-galli; assay: Test Example 5: herbicidal effect by foliage application, plastic box (symbol H); settings: 320 g/ha, 3 weeks after application
How it was run: (§2)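 After sowing into sterilized diluvial soil and growing two weeks under glass at 25° C. to 30° C., seedlings receive a uniform foliar spray of diluted emulsion. Damage is judged visually three weeks on.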

Avena fatua [3] = assay: Test Example 5: herbicidal effect by foliage application, plastic box (symbol I); settings: 320 g/ha, 3 weeks after application
How it was run: as §2

Amaranthus retroflexus = assay: Test Example 4: herbicidal effect by soil treatment (symbol N); settings: application herbicide amount 320 g/ha
How it was run: as §1

rapeseed = assay: Test Example 5: effect on crop by foliage application, plastic box (symbol g); settings: 320 g/ha, 3 weeks after application
How it was run: (§3)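 Plants were raised from seed in a greenhouse (25° C. to 30° C.) after sowing in a plastic box of sterilized diluvial soil.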

Stellaria media = assay: Test Example 5: herbicidal effect by foliage application, plastic box (symbol P); settings: 320 g/ha, 3 weeks after application
How it was run: as §2

beet = assay: Test Example 5: effect on crop by foliage application, plastic box (symbol f); settings: 320 g/ha, 3 weeks after application
How it was run: as §3

Apera spica-venti [4] = assay: Test Example 5: herbicidal effect by foliage application, plastic box (symbol L); settings: 320 g/ha, 3 weeks after application
How it was run: as §2

Digitaria ciliaris = assay: Test Example 5: herbicidal effect by foliage application, plastic box (symbol F); settings: 320 g/ha, 3 weeks after application
How it was run: as §2

soybean = assay: Test Example 4: effect on crop by soil treatment (symbol d); settings: application herbicide amount 320 g/ha
How it was run: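 Steps: fill box with sterilized diluvial soil; sow seed spot-like; cover with ~1.5 cm soil; grow in greenhouse (25° C. to 30° C.).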

Veronica persica = assay: Test Example 5: herbicidal effect by foliage application, plastic box (symbol R); settings: 320 g/ha, 3 weeks after application
How it was run: as §2

Galium spurium = assay: Test Example 5: herbicidal effect by foliage application, plastic box (symbol Q); settings: 320 g/ha, 3 weeks after application
How it was run: as §2

Apera spica-venti [5] = assay: Test Example 4: herbicidal effect by soil treatment (symbol L); settings: application herbicide amount 320 g/ha
How it was run: as §1

Setaria viridis = assay: Test Example 4: herbicidal effect by soil treatment (symbol G); settings: application herbicide amount 320 g/ha
How it was run: as §1

Abutilon theophrasti = assay: Test Example 5: herbicidal effect by foliage application, plastic box (symbol M); settings: 320 g/ha, 3 weeks after application
How it was run: as §2

Chenopodium album = assay: Test Example 5: herbicidal effect by foliage application, plastic box (symbol O); settings: 320 g/ha, 3 weeks after application
How it was run: as §2

Row | SMILES | Herbicidal effect grade, B: Scirpus juncoides (Scirpus juncoides) | H: Echinochloa crus-galli var. crus-galli, herbicidal effect grade [2] | I: Avena fatua, herbicidal effect grade (Avena fatua [3]) | g: rapeseed, effect on crop grade (rapeseed) | P: Stellaria media, herbicidal effect grade (Stellaria media) | f: beet, effect on crop grade (beet) | L: Apera spica-venti, herbicidal effect grade (Apera spica-venti [4]) | F: Digitaria ciliaris, herbicidal effect grade (Digitaria ciliaris) | Q: Galium spurium, herbicidal effect grade (Galium spurium) | M: Abutilon theophrasti, herbicidal effect grade (Abutilon theophrasti) | other results
1 | C=CCON=C(C)CC1CC(O)=C(c2c(C)cc(C)cc2C)C1=O (stereo not shown) [1-018] | 5 (Herbicidal ratio of 90% or more (almost completely withered)) | 5 (Herbicidal ratio of 90% or more (almost completely withered)) | 5 (Herbicidal ratio of 90% or more (almost completely withered)) | 4 (Herbicidal ratio of 70% or higher and lower than 90%) | 4 (Herbicidal ratio of 70% or higher and lower than 90%) | 4 (Herbicidal ratio of 70% or higher and lower than 90%) | 5 (Herbicidal ratio of 90% or more (almost completely withered)) | 5 (Herbicidal ratio of 90% or more (almost completely withered)) | 4 (Herbicidal ratio of 70% or higher and lower than 90%) | 3 (Herbicidal ratio of 40% or higher and lower than 70%) | herbicidal effect on D (Leptochloa chinensis), grade 0-5 (Leptochloa chinensis): 5 (Herbicidal ratio of 90% or more (almost completely withered)); I (Avena fatua) herbicidal effect grade (Avena fatua [1]): 4 (Herbicidal ratio of 70% or higher and lower than 90%); N (Amaranthus retroflexus) herbicidal effect grade (Amaranthus retroflexus): 2 (Herbicidal ratio of 20% or higher and lower than 40%); d (soybean) effect on crop grade (soybean): 0 (Herbicidal ratio of 5% or lower (almost no effect)); R: Veronica persica, herbicidal effect grade (Veronica persica): 4 (Herbicidal ratio of 70% or higher and lower than 90%); L (Apera spica-venti) herbicidal effect grade (Apera spica-venti [5]): 5 (Herbicidal ratio of 90% or more (almost completely withered)); G (Setaria viridis) herbicidal effect grade (Setaria viridis): 3 (Herbicidal ratio of 40% or higher and lower than 70%)
2 | CC(=O)C1CC(O)=C(c2c(C)cc(C)cc2C)C1=O (stereo not shown) [8-001] | 0 (Herbicidal ratio of 5% or lower (almost no effect)) | 1 (Herbicidal ratio of 5% or higher and lower than 20%) | 0 (Herbicidal ratio of 5% or lower (almost no effect)) | 0 (Herbicidal ratio of 5% or lower (almost no effect)) | 0 (Herbicidal ratio of 5% or lower (almost no effect)) | 0 (Herbicidal ratio of 5% or lower (almost no effect)) | 0 (Herbicidal ratio of 5% or lower (almost no effect)) | 1 (Herbicidal ratio of 5% or higher and lower than 20%) | 0 (Herbicidal ratio of 5% or lower (almost no effect)) | 0 (Herbicidal ratio of 5% or lower (almost no effect)) | O: Chenopodium album, herbicidal effect grade (Chenopodium album): 0 (Herbicidal ratio of 5% or lower (almost no effect)); D (Leptochloa chinensis) herbicidal effect grade (Leptochloa chinensis; Table 24): 0 (Herbicidal ratio of 5% or lower (almost no effect)); Herbicidal effect grade, I: Avena fatua (Avena fatua [1]): 0 (Herbicidal ratio of 5% or lower (almost no effect)); Herbicidal effect grade, N: Amaranthus retroflexus (Amaranthus retroflexus): 0 (Herbicidal ratio of 5% or lower (almost no effect)); Effect on crop grade, d: soybean (soybean): 0 (Herbicidal ratio of 5% or lower (almost no effect)); Herbicidal effect grade, L: Apera spica-venti (Apera spica-venti [5]): 0 (Herbicidal ratio of 5% or lower (almost no effect)); Herbicidal effect grade, G: Setaria viridis (Setaria viridis): 0 (Herbicidal ratio of 5% or lower (almost no effect))
